In one assay the target is T1, recombinant human 5-HT1A (Homo sapiens, UniProt P08908).
T1 construct: expressed in transfected cells; host or cells: CHO
T1 sequence (P08908 1-422): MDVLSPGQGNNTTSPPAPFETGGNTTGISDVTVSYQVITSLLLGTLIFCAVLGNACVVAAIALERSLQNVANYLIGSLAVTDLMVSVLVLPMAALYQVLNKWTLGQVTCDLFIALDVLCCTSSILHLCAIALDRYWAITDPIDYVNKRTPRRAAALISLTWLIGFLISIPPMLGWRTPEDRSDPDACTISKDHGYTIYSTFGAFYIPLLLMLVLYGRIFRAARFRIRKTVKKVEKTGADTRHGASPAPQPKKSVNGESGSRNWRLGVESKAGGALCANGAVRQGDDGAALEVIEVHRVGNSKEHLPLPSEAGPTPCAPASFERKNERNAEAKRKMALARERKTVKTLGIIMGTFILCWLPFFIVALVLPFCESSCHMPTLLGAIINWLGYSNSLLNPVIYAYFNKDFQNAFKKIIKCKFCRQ
The experiment in a line: radioligand binding to serotonin receptor 5-HT1A ([3H] 8-OH-DPAT). The source says: J Pharmacol Exp Ther. 306(1): 301-309, 2003]. […] Metergoline is used as positive control.

A further assay concerns mice. The experiment in a line: Mice Training in Morris Water Maze (Scopolamine). It counts as in vivo. Conditions: unitary introduction of active ingredient. Here is the method: Mice Training in Morris Water Maze. A round pool which was filled with water at 20-22° C. was used. A round ceramic platform of 14 cm height was placed in the pool. Animals's behavior was registered with automated computer videosystem in combination with software package of movement analysis Any-maze (Stoelting Co., US). Before testing mice suitable for training were selected. That was done by placing the platform 1 cm above the water level and putting an animal on the platform for 20 seconds. Then the mouse was sunk into the water on the opposite side of the pool, allowed to find the platform and climbed it within 60 seconds, where it was left for additional 20 seconds. After that the mouse was repeatedly immersed into water on the opposite side of the pool and allowed to look for platform. If it failed in finding the platform within 60 seconds the experimentator helped it to find the platform and climb it. If the mice could not find the platform itself in two consecutive attempts it was excluded from experiment.
During the next two days the platform was placed 0.5 centimeter lower the water level. Every day the mice were given four attempts for finding the platform within 60 seconds. The time interval between the attempts was 20 seconds, during which the mice stayed on the platform. Every day before the first attempt mouse was placed on the platform for 20 seconds. The time needed for finding and climbing the platform was registered. The animals were sunk in water in 3 different places on the side of the pool opposite to platform. On each day of two-day testing 35-40 minutes before the beginning of training the mice were injected intraintestinally with physiological solution, Scopolamine or Scopolamine in combination with investigated compound. At least 8 animals were used in each group.
On the third day the platform was removed and each animal was placed one time in the pool for a period of 60 seconds. The time each mouse spent in the area where the platform had been located during the previous days was registered. This time interval was regarded as a measure of effectiveness of training fulfilled during the previous two days. The testing was carried out during the day time in isolated laboratory using “white noise” at level of about 70 decibel above the human hearing threshold.

`Cc1ccc2c(c1)[C@@H]1CN(C)CCC[C@@H]1N2CCc1ccc(C)nc1.Cl.Cl.Cl` (relative stereo) [1.6.1(2)•3HCl]: the 5-HT1A % inhibition on recombinant human 5-HT1A (10 μM ligand) is recorded as −9%.

What is called inhibition is how much of the control response was suppressed. On to `Cc1ccc2c(c1)c1c(n2CCc2ccccn2)CCN(C)C1.Cl.Cl` [1.1.2(2-3)•2HCl], for which the inhibition at 1 µM on recombinant human 5-HT1A (ligand concentration 1 μM) was found to be 53%. Also, the “memory disorders caused by Scopolamine in Morris water maze” value in the assay on mice was “decreasing memory disorders coused by Scopalomine”.

Values taken from patent publication US20110039825A1, “LIGANDS OF ALPHA-ADRENOCEPTORS, DOPAMINE, HISTAMINE, IMIDAZOLINE AND SEROTONIN RECEPTORS AND THEIR USE” (Alla Chem, LLC, priority 2007, published 2011).
